According to patent publication US20250101039A1, “RIFAMYCIN DERIVATIVES FOR THE TREATMENT OF DISEASES” (priority 2022, published 2025):
Values after ≈ are worked out from the molar mass of the structure shown. Values joined by “and” are separate entries in the source; they are usually repeats but may differ in a detail not shown here. Identical values can stand only once. Like-named read-outs stand apart in the source and are kept apart here.

Tests used:
[1] = tested on: S. pyogenes (strain IHMA 1117021); assay: MIC by broth microdilution, S. pyogenes; assay type: cell-based, Streptococcus pyogenes; details: strain IHMA 1117021, cation adjusted Mueller Hinton broth + 5% laked horse blood
A. baumannii = assay: MIC by broth microdilution, A. baumannii (WT); assay type: cell-based, Acinetobacter baumannii; details: for MIC A. baumannii: RPMI medium supplemented with 10% FCS, 35° C. 20 hours; for A. baumannii MIC, WT: Table 4, RPMI + FCS
A. baumannii RpoB I581M = assay: microbe, parasite or virus in culture; assay type: cell-based, Acinetobacter baumannii
[2] = tested on: Enterococcus faecalis (strain ATCC 51575); assay: MIC by broth microdilution, E. faecalis; assay type: cell-based; details: strain ATCC 51575, cation adjusted Mueller Hinton broth
A. baumannii RpoB L542F = assay: microbe, parasite or virus in culture; assay type: cell-based, Acinetobacter baumannii
[3] = tested on: M. tuberculosis (H37Rv strain ATCC 27294); assay type: cell-based, Mycobacterium tuberculosis
[4] = tested on: A. baumannii RpoB H535Q/S521T; assay: microbe, parasite or virus in culture; assay type: cell-based, Acinetobacter baumannii
A. baumannii RpoB N527D = assay: microbe, parasite or virus in culture; assay type: cell-based, Acinetobacter baumannii
[5] = tested on: Enterococcus faecium (strain NCTC 12204); assay: MIC by broth microdilution, E. faecium; assay type: cell-based; details: strain NCTC 12204, cation adjusted Mueller Hinton broth
[6] = tested on: H. influenzae (strain ATCC 49247); assay: MIC by broth microdilution, H. influenzae; assay type: cell-based, Hemophilus influenzae; details: strain ATCC 49247, Hemophilus test medium broth
A. baumannii RpoB H535L = assay: microbe, parasite or virus in culture; assay type: cell-based, Acinetobacter baumannii
A. baumannii RpoB H535C = assay: microbe, parasite or virus in culture; assay type: cell-based, Acinetobacter baumannii
[7] = tested on: Staphylococcus epidermidis (strain ATCC 12228); assay: MIC by broth microdilution, S. epidermidis; assay type: cell-based; details: strain ATCC 12228, cation adjusted Mueller Hinton broth
[8] = tested on: M. smegmatis (strain ATCC 700084); assay: MIC, M. smegmatis (BacTiter-Glo); assay type: cell-based, Mycobacterium smegmatis; details: strain ATCC 700084, Middlebrook 7H9 + ADC, 90% growth inhibition, 20 hours
[9] = tested on: M. abscessus (strain ATCC 19977); assay: MIC by broth microdilution, M. abscessus; assay type: cell-based, Mycobacterium abscessus; details: strain ATCC 19977, Middlebrook 7H9 broth + ADC
A. baumannii RpoB S583L = assay: microbe, parasite or virus in culture; assay type: cell-based, Acinetobacter baumannii
S. aureus = assay: MIC by broth microdilution, S. aureus; assay type: cell-based, Staphylococcus aureus; details: cation adjusted Mueller Hinton broth, 35° C. 20 hours
A. baumannii RpoB H535Q = assay: microbe, parasite or virus in culture; assay type: cell-based, Acinetobacter baumannii
[10] = tested on: S. pneumoniae (strain ATCC 49619); assay: MIC by broth microdilution, S. pneumoniae; assay type: cell-based, Streptococcus pneumoniae; details: strain ATCC 49619, cation adjusted Mueller Hinton broth + 5% laked horse blood

| Compound | MIC S. pyogenes [1] [µg/mL] | MIC A. baumannii (A. baumannii) [µg/mL] | A. baumannii MIC, WT (A. baumannii) [µg/mL] | MIC E. faecalis [2] [µg/mL] | MIC M. tuberculosis [3] [µg/mL] | MIC, RpoB mutation H535Q/S521T [4] | MIC E. faecium [5] [µg/mL] | MIC H. influenzae [6] [µg/mL] | MIC S. epidermidis [7] [µg/mL] | MIC M. smegmatis [8] [µg/mL] | MIC M. abscessus [9] [µg/mL] | MIC S. pneumoniae [10] [µg/mL] | further results |
| --- | --- | --- | --- | --- | --- | --- | --- | --- | --- | --- | --- | --- | --- |
| CO[C@H]1/C=C/O[C@@]2(C)Oc3c(C)c(O)c4c(c3C2=O)C2=NC3(CC5CCC(C3)N5)NC2=C(NC(=O)/C(C)=C\C=C\[C@H](C)[C@H](O)[C@@H](C)[C@@H](O)[C@@H](C)[C@H](OC(C)=O)[C@@H]1C)C4=O (single isomer, unassigned) [Compound 12B] | < 0.002 | < 0.002 | ≤0.002 | 0.125 (≈ 0.153 µM) | 0.01 (≈ 0.0122 µM) | 0.5 µg/mL and 1 µg/mL | 0.03 (≈ 0.0367 µM) | 0.06 (≈ 0.0734 µM) | < 0.002 | 0.32 | 8 | < 0.002 | MIC, RpoB mutation I581M (A. baumannii RpoB I581M; Table 5 part 1 c1, clinical isolate, RPMI + 10% FCS): 0.004 µg/mL; MIC, RpoB mutation L542F (A. baumannii RpoB L542F): 0.002 µg/mL (≈ 0.00245 µM); MIC, RpoB mutation N527D (A. baumannii RpoB N527D; Table 5 part 3 c5, clinical isolate, RPMI + 10% FCS): ≤0.002 µg/mL; A. baumannii MIC, RpoB H535L (A. baumannii RpoB H535L; Table 4, RPMI + FCS): 0.03 µg/mL; A. baumannii MIC, RpoB H535C (A. baumannii RpoB H535C; Table 4, RPMI + FCS): ≤0.002 µg/mL; MIC, RpoB mutation S583L (A. baumannii RpoB S583L; Table 5 part 3 c4, clinical isolate, RPMI + 10% FCS): 0.004 µg/mL; MIC S. aureus (S. aureus): 0.016 µg/mL (≈ 0.0196 µM); A. baumannii MIC, RpoB H535Q (A. baumannii RpoB H535Q; Table 4, RPMI + FCS): ≤0.002 µg/mL |
| CO[C@H]1/C=C/O[C@@]2(C)Oc3c(C)c(O)c4c(c3C2=O)C2=NC3(NC2=C(NC(=O)/C(C)=C\C=C\[C@H](C)[C@H](O)[C@@H](C)[C@@H](O)[C@@H](C)[C@H](OC(C)=O)[C@@H]1C)C4=O)C1CC2CC3CN(C2)C1 (some centres unmarked) [Compound 3B] | < 0.002 | < 0.002 | ≤0.002 | 0.5 (≈ 0.593 µM) | 0.01 (≈ 0.0119 µM) | 1 µg/mL and 0.5 µg/mL | 0.03 (≈ 0.0356 µM) | 0.125 (≈ 0.148 µM) | < 0.002 | 0.65 | 8 | < 0.002 | MIC, RpoB mutation I581M (A. baumannii RpoB I581M): ≤0.002 µg/mL; MIC, RpoB mutation N527D (A. baumannii RpoB N527D): ≤0.002 µg/mL; A. baumannii MIC, RpoB H535L (A. baumannii RpoB H535L): 0.016 µg/mL; A. baumannii MIC, RpoB H535C (A. baumannii RpoB H535C): ≤0.002 µg/mL; MIC, RpoB mutation S583L (A. baumannii RpoB S583L): ≤0.002 µg/mL; A. baumannii MIC, RpoB H535Q (A. baumannii RpoB H535Q): ≤0.002 µg/mL |
